This is an account of results in ChEMBL document CHEMBL1148120, “New cytotoxic 6,7-cis and 6,7-trans configured guaianolides from Warionia saharae” (J Nat Prod, 2002).

One may read the IC50 as the concentration at which inhibition is half-maximal. Read a low IC50 as greater potency.

Converted amounts (≈) assume the structure as drawn.

The assay relates to KB. In words: Cytotoxicity against human KB cells. Type of assay: functional, cell-based.

With `C=C1C(=O)O[C@@H]2[C@H]1CCC(C)=C1[C@H]3O[C@](C)([C@H]3O)[C@@H]12` [MOROCCOLIDE A], the IC50 came out at 4.5 µg/mL (≈ 17.2 µM). The same measure for `C=C1C(=O)O[C@@H]2[C@H]1CCC(C)=C1[C@H]3O[C@](C)([C@H]3OC(=O)C(C)CC)[C@@H]12` (stereo partly drawn) [3BETA-O-(2-METHYLBUTYRYL)MOROCCOLIDE A]: 1 µg/mL (≈ 2.89 µM). Under `C=C1C(=O)O[C@H]2[C@H]1CC=C(C)[C@]1(O)C[C@H]3O[C@@]3(C)[C@H]21` stands 1.7 µg/mL (≈ 6.48 µM); under `C=C1C(=O)O[C@H]2[C@@H]3[C@@](O)(C(C)=CC[C@@H]12)[C@@H]1C[C@@]3(C)O1` [SAHARANOLIDE A], 3.3 µg/mL (≈ 12.6 µM); under `C=C1C(=O)O[C@H]2[C@@H]3[C@@](O)(C(=C)CC[C@@H]12)[C@@H]1C[C@@]3(C)O1` [SAHARANOLIDE B], 5.5 µg/mL (≈ 21 µM). For `C=C1C(=O)O[C@H]2[C@H]1CCC(=C)[C@]1(O)C[C@H]3O[C@@]3(C)[C@H]21`, it took 2 µg/mL (≈ 7.62 µM) to reach half-maximal inhibition (IC50).
